Laboratory results from ChEMBL document CHEMBL1201862, “PubChem BioAssay data set” (2004).
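Cells were grown in 96-well plates and exposed to each compound for 48 hours at five concentrations; endpoints were interpolated linearly between bracketing concentrations, or set to the highest concentration if not reached. At the GI50, growth is halved.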 The source made the active and inactive calls. No stated cut-off is given here; in the data, active = GI50 up to about 1.1 µM and inactive = higher.

Experiments:
Experiment in all cases: inhibition of tumour cell growth, NCI panel, 48 h
[1] = system: NCI-H522
[2] = system: K562
[3] = system: HOP-92
[4] = system: Malme-3M
[5] = system: HL-60
[6] = system: RXF 393
[7] = system: SF-295
[8] = system: HCT-116
[9] = system: PC-3
[10] = system: CAKI-1
[11] = system: SF-539
[12] = system: M14
[13] = system: UACC-62
[14] = system: MDA-N
[15] = system: SR
[16] = system: MDA-MB-231
[17] = system: MDA-MB-435
[18] = system: SK-MEL-2

Row | SMILES | GI50 [1] | GI50 [2] | GI50 [3] | GI50 [4] | GI50 [5] | GI50 [6] | GI50 [7] | GI50 [8] | GI50 [9] | GI50 [10] | GI50 [11] | GI50 [12] | GI50 [13] | GI50 [14] | GI50 [15] | GI50 [16] | GI50 [17] | GI50 [18]
1 | COc1cccc(C=C(C#N)C#N)c1OC | > 100 µM (inactive) | > 100 µM (inactive) | > 100 µM (inactive) | > 100 µM (inactive) | 85.9 µM (inactive) | > 100 µM (inactive) | > 100 µM (inactive) | > 100 µM (inactive) | > 100 µM (inactive) | > 100 µM (inactive) | > 100 µM (inactive) | > 100 µM (inactive) | > 100 µM (inactive) | > 100 µM (inactive) | > 100 µM (inactive) | – | – | –
2 | C[C@]12CC/C(=N\O)C=C1CC[C@@H]1[C@@H]2CC[C@]2(C)C(=N/O)/C(=C/c3cccnc3)C[C@@H]12 | 12.1 µM (inactive) | 6.98 µM (inactive) | 12.8 µM (inactive) | 17.8 µM (inactive) | 0.338 µM (active) | – | 6.95 µM (inactive) | 17.5 µM (inactive) | 6.95 µM (inactive) | – | 25.2 µM (inactive) | 16.5 µM (inactive) | 3.3 µM (inactive) | 12.5 µM (inactive) | – | 17.7 µM (inactive) | 15.9 µM (inactive) | 19.8 µM (inactive)
3 | CCOC(=O)/C(=C\NC(C)(C)C)c1nc2ccccc2o1 | 29.6 µM (inactive) | – | 33.5 µM (inactive) | 35.7 µM (inactive) | 2.42 µM (inactive) | 24.7 µM (inactive) | 34 µM (inactive) | 37.3 µM (inactive) | – | 60.4 µM (inactive) | 47.4 µM (inactive) | 48 µM (inactive) | 18.4 µM (inactive) | 32 µM (inactive) | 25.6 µM (inactive) | – | 33.3 µM (inactive) | –
4 | C(=C\c1ccco1)/c1cccc(/C=C/c2ccco2)n1 | > 50 µM (inactive) | > 50 µM (inactive) | > 50 µM (inactive) | > 50 µM (inactive) | > 50 µM (inactive) | > 50 µM (inactive) | > 50 µM (inactive) | > 50 µM (inactive) | – | > 50 µM (inactive) | > 50 µM (inactive) | > 50 µM (inactive) | > 50 µM (inactive) | > 50 µM (inactive) | 33.6 µM (inactive) | – | > 50 µM (inactive) | –
5 | O=C(c1nsc(Cl)c1Cl)N1CCCCC1 | – | > 100 µM (inactive) | – | > 100 µM (inactive) | > 100 µM (inactive) | > 100 µM (inactive) | > 100 µM (inactive) | > 100 µM (inactive) | > 100 µM (inactive) | > 100 µM (inactive) | > 100 µM (inactive) | > 100 µM (inactive) | > 100 µM (inactive) | > 100 µM (inactive) | > 100 µM (inactive) | > 100 µM (inactive) | > 100 µM (inactive) | –
6 | CC(=O)OC(/C=C/c1ccccc1)=C(OC(C)C)/C1=C(\c2ccccc2)SCCCSC1=O | – | > 100 µM (inactive) | > 100 µM (inactive) | > 100 µM (inactive) | 49.8 µM (inactive) | 74.3 µM (inactive) | 56.8 µM (inactive) | > 100 µM (inactive) | > 100 µM (inactive) | > 100 µM (inactive) | > 100 µM (inactive) | > 100 µM (inactive) | 63 µM (inactive) | – | – | > 100 µM (inactive) | > 100 µM (inactive) | > 100 µM (inactive)
7 | CN(C)Cc1[nH]c2ccccc2c1C(=O)c1ccccc1 | > 100 µM (inactive) | 91.6 µM (inactive) | 33 µM (inactive) | > 100 µM (inactive) | 86.9 µM (inactive) | – | > 100 µM (inactive) | > 100 µM (inactive) | – | > 100 µM (inactive) | > 100 µM (inactive) | > 100 µM (inactive) | > 100 µM (inactive) | – | 88.3 µM (inactive) | – | – | > 100 µM (inactive)
